Results from patent US12157730B2, “Heteroaryl derivative, method for producing same, and pharmaceutical composition comprising same as effective component” (VORONOI INC., priority 2019, dated 2024).

Each compound was assayed against T1, Ba/F3 cell EGFR Exon20 ins NPH (Homo sapiens, UniProt P00533, INS773NPH) (assay: Ba/F3 cell proliferation suppression, EGFR Exon20 ins NPH). Details: GI50 class; Ba/F3 cell line with NPH inserted at Exon20 of EGFR; 72 hours.
T1 construct: expressed in transfected cells; host or cells: Ba/F3
Type: cell-based
Summary of the method: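 Cells were seeded 24 h before dosing and then treated for 72 hours with compound at final concentrations of 0.3 nM to 50 um. Live cells were measured by CellTiter-Glo luminescence, and GI50 values were derived from growth ratio relative to control across three repeats.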

| Structure (SMILES) | Ba/F3 (NPH) Activity |
| --- | --- |
| C=CC(=O)Nc1cc(Nc2cc(N3OCC[C@@H]3c3cc(F)cc(F)c3)ncn2)c(OC)cc1N1CC[C@H](N2CCOCC2)C1 [Example 272, N-(5-((6-((R)-3-(3,5-difluorophenyl)isoxazolidine-2-yl)pyrimidine-4-yl)amino)-4-methoxy-2-((S)-3-morpholinopyrolidine-1-yl)phenyl)acrylamide] | B (50 nM ≤ GI50 < 500 nM) |
| C=CC(=O)Nc1cc(Nc2cc(N3OCC[C@@H]3c3cccc(OC)c3)ncn2)c(OC)cc1N1CCC(N2CCN(C(C)=O)CC2)CC1 [compound 779, N-(2-(4-(4-acetylpiperazine-1-yl)piperidine-1-yl)-4-methoxy-5-((6-((R)-3-(3-methoxyphenyl)isoxazolidine-2-yl)pyrimidine-4-yl)amino)phenyl)acrylamide] | A (GI50 < 50 nM) |
| C=CC(=O)Nc1cc(Nc2cc(N3OCC[C@@H]3Cc3ccccc3)ncn2)c(OC)cc1-n1ccnc1C [compound 960, N-(5-((6-((S)-3-benzylisoxazolidine-2-yl)pyrimidine-4-yl)amino)-4-methoxy-2-(2-methyl-1H-imidazole-1-yl)phenyl)acrylamide] | B (50 nM ≤ GI50 < 500 nM) |
| C=CC(=O)Nc1cc(Nc2cc(N3OCC[C@@H]3c3cccc(Cl)c3Cl)ncn2)c(OC)cc1N1CCN(C2CC2)[C@H](C)C1 [compound 564, N-(2-((R)-4-cyclopropyl-3-methylpiperazine-1-yl)-5-((6-((R)-3-(2,3-dichlorophenyl)isoxazolidine-2-yl)pyrimidine-4-yl)amino)-4-methoxyphenyl) acrylamide] | A (GI50 < 50 nM) |
| C=CC(=O)Nc1cc(Nc2cc(N3OCC[C@@H]3c3cccc(C(F)(F)F)c3)ncn2)c(OC)cc1N1CCN(C)CC1 [compound 450, N-(4-methoxy-2-(4-methylpiperazine-1-yl)-5-((6-((R)-3-(3-(trifluoromethyl)phenyl)isoxazolidine-2-yl)pyrimidine-4-yl)amino)phenyl)acrylamide] | A (GI50 < 50 nM) |
| C=CC(=O)Nc1cc(Nc2cc(N3OCC[C@@H]3c3cccc(C#N)c3)ncn2)c(OC)cc1N(C)CCN(C)C [compound 392, N-(5-((6-((R)-3-(3-cyanophenyl)isoxazolidine-2-yl)pyrimidine-4-yl)amino)-2-((2-(dimethylamino)ethyl)(methyl)amino)-4-methoxyphenyl) acrylamide] | A (GI50 < 50 nM) |
| C=CC(=O)Nc1cc(Nc2cc(N3OCC[C@@H]3c3cc(F)ccc3F)ncn2)c(OC)cc1N1CCC(N2C[C@@H](C)N(C3CC3)C[C@@H]2C)CC1 [Example 174, N-(2-(4-((2S,5R)-4-cyclopropyl-2,5-dimethylpiperazine-1-yl)piperidine-1-yl)-5-((6-((R)-3-(2,5-difluorophenyl)isoxazolidine-2-yl)pyrimidine-4-yl)amino)-4-methoxyphenyl) acrylamide] | A (GI50 < 50 nM) |
| C=CC(=O)Nc1cc(Nc2cc(N3OCC[C@@H]3c3cc(F)ccc3F)ncn2)c(OC)cc1N1CCN(C2CC2)C[C@@H]1C [compound 879, N-(2-((S)-4-cyclopropyl-2-methylpiperazine-1-yl)-5-((6-((R)-3-(2,5-difluorophenyl)isoxazolidine-2-yl)pyrimidine-4-yl)amino)-4-methoxyphenyl) acrylamide] | A (GI50 < 50 nM) |
| C#Cc1cccc([C@H]2CCON2c2cc(Nc3cc(NC(=O)C=C)c(N4CCC(N5C[C@@H]6C[C@H]5CO6)CC4)cc3OC)ncn2)c1 [compound 618, N-(2-(4-((1S,4S)-2-oxa-5-azabicyclo[2.2.1]heptane-5-yl)piperidine-1-yl)-5-((6-((R)-3-(3-ethynylphenyl)isoxazolidine-2-yl)pyrimidine-4-yl)amino)-4-methoxyphenyl) acrylamide] | A (GI50 < 50 nM) |
| C=CC(=O)Nc1cc(Nc2cc(N3OCC[C@@H]3c3ccc(Cl)c(F)c3)ncn2)c(OC)cc1N1CCC(N2CCN(CC)CC2)CC1 [Example 262, N-(5-((6-((R)-3-(4-chloro-3-fluorophenyl)isoxazolidine-2-yl)pyrimidine-4-yl)amino)-2-(4-(4-ethylpiperazine-1-yl)piperidine-1-yl)-4-methoxyphenyl) acrylamide] | A (GI50 < 50 nM) |
| C=CC(=O)Nc1cc(Nc2cc(N3OCC[C@@H]3c3ccc4ccccc4c3)ncn2)c(OC)cc1N(C)CCN(C)C [compound 511, N-(2-((2-(dimethylamino)ethyl)(methyl)amino)-4-methoxy-5-((6-((R)-3-(naphthalene-2-yl)isoxazolidine-2-yl)pyrimidine-4-yl)amino)phenyl)acrylamide] | A (GI50 < 50 nM) |
| C=CC(=O)Nc1cc(Nc2cc(N3OCC[C@@H]3c3ccc(Cl)c(F)c3)ncn2)c(OC)cc1N1CCN(C2COC2)CC1 [compound 801, N-(5-((6-((R)-3-(4-chloro-3-fluorophenyl)isoxazolidine-2-yl)pyrimidine-4-yl)amino)-4-methoxy-2-(4-(oxetane-3-yl)piperazine-1-yl)phenyl)acrylamide] | A (GI50 < 50 nM) |
| C=CC(=O)Nc1cc(Nc2cc(N3OCC[C@@H]3c3ccc(Cl)c(Cl)c3F)ncn2)c(OC)cc1N1CCC(N2C[C@H]3C[C@@H]2CO3)CC1 [Example 268, N-(2-(4-((1R,4R)-2-oxa-5-azabicyclo[2.2.1]heptane-5-yl)piperidine-1-yl)-5-((6-((R)-3-(3,4-dichloro-2-fluorophenyl)isoxazolidine-2-yl)pyrimidine-4-yl)amino)-4-methoxyphenyl) acrylamide] | A (GI50 < 50 nM) |
| C=CC(=O)Nc1cc(Nc2cc(N3OCC[C@@H]3c3cccc(Cl)c3F)ncn2)c(OC)cc1N1CCC(N2CCN(C3CC3)C[C@@H]2C)CC1 [Example 150, N-(5-((6-((R)-3-(3-chloro-2-fluorophenyl)isoxazolidine-2-yl)pyrimidine-4-yl)amino)-2-(4-((S)-4-cyclopropyl-2-methylpiperazine-1-yl)piperidine-1-yl)-4-methoxyphenyl) acrylamide] | A (GI50 < 50 nM) |
| C=CC(=O)Nc1cc(Nc2cc(N3OCC[C@@H]3c3ccc(F)cc3)ncn2)c(OC)cc1N1CCC(N2C[C@@H](C)O[C@@H](C)C2)CC1 [compound 814, N-(2-(4-((2S,6R)-2,6-dimethylmorpholino)piperidine-1-yl)-5-((6-((R)-3-(4-fluorophenyl)isoxazolidine-2-yl)pyrimidine-4-yl)amino)-4-methoxyphenyl) acrylamide] | A (GI50 < 50 nM) |
| C=CC(=O)Nc1cc(Nc2cc(N3OCC[C@@H]3c3ccccc3)ncn2)c(OC)cc1N1CCC(N2C[C@@H](C)O[C@@H](C)C2)CC1 [Example 285, N-(2-(4-((2S,6R)-2,6-dimethylmorpholino)piperidine-1-yl)-4-methoxy-5-((6-((R)-3-phenylisoxazolidine-2-yl)pyrimidine-4-yl)amino)phenyl) acrylamide] | A (GI50 < 50 nM) |
| C=CC(=O)Nc1cc(Nc2cc(N3OCC[C@@H]3Cc3ccccn3)ncn2)c(OC)cc1N1CCC(N2CCN(C3CC3)CC2)CC1 [compound 1059, N-(2-(4-(4-cyclopropylpiperazine-1-yl)piperidine-1-yl)-4-methoxy-5-((6-((S)-3-(pyridine-2-ylmethyl)isoxazolidine-2-yl)pyrimidine-4-yl)amino)phenyl)acrylamide] | A (GI50 < 50 nM) |
| C=CC(=O)Nc1cc(Nc2cc(N3OCC[C@@H]3c3cccc(Cl)c3)ncn2)c(OC)cc1N1CCC(N2CCN(C)CC2)CC1 [compound 416] | A (GI50 < 50 nM) |
| C=C(F)C(=O)Nc1cc(Nc2cc(N3OCC[C@@H]3c3cc(F)cc(F)c3)ncn2)c(OC)cc1N1CCC(N2CCN(C3CC3)CC2)CC1 [Example 120, N-(2-(4-(4-cyclopropylpiperazine-1-yl)piperidine-1-yl)-5-((6-((R)-3-(3,5-difluorophenyl)isoxazolidine-2-yl)pyrimidine-4-yl)amino)-4-methoxyphenyl)-2-fluoroacrylamide] | C (500 nM ≤ GI50 < 5000 nM) |
| C=CC(=O)Nc1cc(Nc2cc(N3OCC[C@@H]3c3cc(F)cc(Cl)c3)ncn2)c(OC)cc1N1CCC(N(C)C)CC1 [compound 627, N-(5-((6-((R)-3-(3-chloro-5-fluorophenyl)isoxazolidine-2-yl)pyrimidine-4-yl)amino)-2-(4-(dimethylamino)piperidine-1-yl)-4-methoxyphenyl) acrylamide] | A (GI50 < 50 nM) |
| C=CC(=O)Nc1cc(Nc2cc(N3OCC[C@@H]3c3cccc(Cl)c3Cl)ncn2)c(OC)cc1N1CCC(N2CCN(C3CCN(C)CC3)CC2)CC1 [compound 611] | B (50 nM ≤ GI50 < 500 nM) |
| C=CC(=O)Nc1cc(Nc2cc(N3OCC[C@H]3c3c(F)cccc3F)ncn2)c(OC)cc1N1CCC(N2CC[C@H](N(C)C)C2)CC1 [compound 315, N-(5-((6-((S)-3-(2,6-difluorophenyl)isoxazolidine-2-yl)pyrimidine-4-yl)amino)-2-(4-((S)-3-(dimethylamino)pyrolidine-1-yl)piperidine-1-yl)-4-methoxyphenyl) acrylamide] | C (500 nM ≤ GI50 < 5000 nM) |
| C=CC(=O)Nc1cc(Nc2cc(N3OCC[C@@H]3c3cc(F)ccc3F)ncn2)c(OC)cc1N1CCN(CCC)CC1 [compound 300, N-(5-((6-((R)-3-(2,5-difluorophenyl)isoxazolidine-2-yl)pyrimidine-4-yl)amino)-4-methoxy-2-(4-propylpiperazine-1-yl)phenyl)acrylamide] | A (GI50 < 50 nM) |
